Assay results published in US20130029928A1 (priority 2010, published 2013).
Like-named read-outs stand apart in the source and are kept apart here.

Experiment: Phase I study CXR1002-001: plasma pharmacokinetics (LC-MS/MS)
Format: in vivo, human
Conditions: human, plasma, oral, person, plasma, read-out: Concentration; for concentration at 336 h: 336 hr (Day 15); for concentration at 360 h: 360 hr (Day 16); for concentration at 504 h: 504 hr (Day 22); for concentration at 528 h: 528 hr (Day 23); for concentration at 672 h: 672 hr (Day 29); for concentration at 696 h: 696 hr (Day 30); for concentration at 840 h: 840 hr (Day 36); for concentration at 864 h: 864 hr (Day 37); for concentration at 24 h: 24 hr (Day 2); for concentration at 168 h: 168 hr (Day 8)
Text: PK samples, PD (fasting) samples, blood glucose, and blood triglyceride samples, were taken over a 6-week period.
Dose limiting toxicity (DLT) will be based on the toxicity assessments over the first 3-week period of the repeat dosing schedule. PK samples (single blood sample) were taken on the following basis: • Every 6 weeks during the repeat dosing phase • If dosing is interrupted or stopped, samples will be taken at intervals according to patient convenience • PK sampling for safety evaluation may take place at any time, as clinically indicated
Plasma samples were collected after the single 50 mg dose at the following timepoints: Pre-dose, and then 0.25, 0.5, 0.75, 1, 1.5, 2, 3, 4, 6, 24, 48, and 72 hours after administration and then once weekly at weeks 2, 3, 4, 5, and 6 (days 8, 15, 22, 29, and 36). For patients treated with the weekly repeat dose, plasma samples were collected at the following timepoints: Pre-dose and then 2, 3, 4 and 24 hours after administration for a total of 6 weeks. Thereafter a single sample was collected every 6 weeks for monitoring of exposure during long term treatment. Plasma samples were processed at site and stored at −80° C. prior to batch shipment to the analytical laboratory.

SMILES: O=C(O)C(F)(F)C(F)(F)C(F)(F)C(F)(F)C(F)(F)C(F)(F)C(F)(F)F [CXR1002]
- concentration at 192 h (600 mg, Patient 021, 600 mg, 192 hr (Day 9)): 479 µM
- concentration at 336 h (600 mg, Patient 021, 600 mg): 412 µM
- concentration at 338 h (600 mg, Patient 021, 600 mg): 650 µM
- concentration at 339 h (600 mg, Patient 021, 600 mg): 653 µM
- concentration at 340 h (600 mg, Patient 021, 600 mg): 633 µM
- concentration at 360 h (600 mg, Patient 021, 600 mg): 604 µM
- concentration at 504 h (600 mg, Patient 021, 600 mg): 605 µM
- concentration at 506 h (600 mg, Patient 021, 600 mg): 734 µM
- concentration at 507 h (600 mg, Patient 021, 600 mg): 654 µM
- concentration at 508 h (600 mg, Patient 021, 600 mg): 722 µM
- concentration at 528 h (600 mg, Patient 021, 600 mg): 678 µM
- concentration at 672 h (600 mg, Patient 021, 600 mg): 613 µM
- concentration at 674 h (600 mg, Patient 021, 600 mg): 681 µM
- concentration at 675 h (600 mg, Patient 021, 600 mg): 847 µM
- concentration at 676 h (600 mg, Patient 021, 600 mg): 845 µM
- concentration at 696 h (600 mg, Patient 021, 600 mg): 799 µM
- concentration at 840 h (600 mg, Patient 021, 600 mg): 779 µM
- concentration at 842 h (600 mg, Patient 021, 600 mg): 968 µM
- concentration at 843 h (600 mg, Patient 021, 600 mg): 928 µM
- concentration at 844 h (600 mg, Patient 021, 600 mg): 981 µM
- concentration at 864 h (600 mg, Patient 021, 600 mg): 995 µM
- concentration at 2 h (600 mg, Patient 022, 600 mg): 193 µM
- concentration at 3 h (600 mg, Patient 022, 600 mg): 196 µM
- concentration at 4 h (600 mg, Patient 022, 600 mg): 199 µM
- concentration at 24 h (600 mg, Patient 022, 600 mg): 157 µM
- concentration at 168 h (600 mg, Patient 022, 600 mg): 143 µM
- concentration at 170 h (600 mg, Patient 022, 600 mg): 310 µM
- concentration at 171 h (600 mg, Patient 022, 600 mg): 270 µM
- concentration at 172 h (600 mg, Patient 022, 600 mg): 276 µM
- concentration at 192 h (600 mg, Patient 022, 600 mg, 192 hr (day 9)): 298 µM
- concentration at 336 h (600 mg, Patient 022, 600 mg): 289 µM
- concentration at 338 h (600 mg, Patient 022, 600 mg): 433 µM
- concentration at 339 h (600 mg, Patient 022, 600 mg): 433 µM
- concentration at 340 h (600 mg, Patient 022, 600 mg): 405 µM
- concentration at 360 h (600 mg, Patient 022, 600 mg): 427 µM
- concentration at 504 h (600 mg, Patient 022, 600 mg): 426 µM
- concentration at 506 h (600 mg, Patient 022, 600 mg): 441 µM
- concentration at 507 h (600 mg, Patient 022, 600 mg): 562 µM
- concentration at 508 h (600 mg, Patient 022, 600 mg): 519 µM
- concentration at 528 h (600 mg, Patient 022, 600 mg): 596 µM
- concentration at 2 h (600 mg, Patient 023, 600 mg): 208 µM
- concentration at 3 h (600 mg, Patient 023, 600 mg): 233 µM
- concentration at 4 h (600 mg, Patient 023, 600 mg): 236 µM
- concentration at 24 h (600 mg, Patient 023, 600 mg): 221 µM
- concentration at 168 h (600 mg, Patient 023, 600 mg): 204 µM
- concentration at 170 h (600 mg, Patient 023, 600 mg): 336 µM
- concentration at 171 h (600 mg, Patient 023, 600 mg): 337 µM
- concentration at 172 h (600 mg, Patient 023, 600 mg): 391 µM
- concentration at 192 h (600 mg, Patient 023, 600 mg, 192 hr (day 9)): 400 µM
- concentration at 336 h (600 mg, Patient 023, 600 mg): 432 µM
- concentration at 338 h (600 mg, Patient 023, 600 mg): 495 µM
- concentration at 339 h (600 mg, Patient 023, 600 mg): 613 µM
- concentration at 340 h (600 mg, Patient 023, 600 mg): 636 µM
- concentration at 360 h (600 mg, Patient 023, 600 mg): 616 µM
- concentration at 2 h (600 mg, Patient 024, 600 mg): 91.6 µM
- concentration at 3 h (600 mg, Patient 024, 600 mg): 188 µM
- concentration at 4 h (600 mg, Patient 024, 600 mg): 283 µM
- concentration at 24 h (600 mg, Patient 024, 600 mg): 258 µM
- concentration at 168 h (600 mg, Patient 024, 600 mg): 212 µM
- concentration at 170 h (600 mg, Patient 024, 600 mg): 436 µM
- concentration at 171 h (600 mg, Patient 024, 600 mg): 441 µM
- concentration at 172 h (600 mg, Patient 024, 600 mg): 439 µM
- concentration at 192 h (600 mg, Patient 024, 600 mg, 192 hr (Day 9)): 418 µM
- concentration at 336 h (600 mg, Patient 024, 600 mg): 488 µM
- concentration at 338 h (600 mg, Patient 024, 600 mg): 578 µM
- concentration at 339 h (600 mg, Patient 024, 600 mg): 533 µM
- concentration at 340 h (600 mg, Patient 024, 600 mg): 628 µM
- concentration at 360 h (600 mg, Patient 024, 600 mg): 647 µM
- concentration at 504 h (600 mg, Patient 024, 600 mg): 691 µM
- concentration at 506 h (600 mg, Patient 024, 600 mg): 642 µM
- concentration at 507 h (600 mg, Patient 024, 600 mg): 706 µM
- concentration at 508 h (600 mg, Patient 024, 600 mg): 630 µM
- concentration at 528 h (600 mg, Patient 024, 600 mg): 859 µM
- concentration at 672 h (600 mg, Patient 024, 600 mg): 788 µM
- concentration at 674 h (600 mg, Patient 024, 600 mg): 694 µM
- concentration at 675 h (600 mg, Patient 024, 600 mg): 779 µM
- concentration at 676 h (600 mg, Patient 024, 600 mg): 780 µM
- concentration at 696 h (600 mg, Patient 024, 600 mg): 811 µM
- concentration at 840 h (600 mg, Patient 024, 600 mg): 814 µM
- concentration at 842 h (600 mg, Patient 024, 600 mg): 898 µM
- concentration at 843 h (600 mg, Patient 024, 600 mg): 904 µM
- concentration at 844 h (600 mg, Patient 024, 600 mg): 908 µM
- concentration at 864 h (600 mg, Patient 024, 600 mg): 966 µM
- concentration at 2 h (750 mg, Patient 026, 750 mg): 95.8 µM
- concentration at 3 h (750 mg, Patient 026, 750 mg): 125 µM
- concentration at 4 h (750 mg, Patient 026, 750 mg): 149 µM
- concentration at 24 h (750 mg, Patient 026, 750 mg): 200 µM
- concentration at 168 h (750 mg, Patient 026, 750 mg): 186 µM
- concentration at 170 h (750 mg, Patient 026, 750 mg): 270 µM
- concentration at 171 h (750 mg, Patient 026, 750 mg): 301 µM
- concentration at 172 h (750 mg, Patient 026, 750 mg): 339 µM
- concentration at 192 h (750 mg, Patient 026, 750 mg, 192 hr (Day 9)): 398 µM
- concentration at 336 h (750 mg, Patient 026, 750 mg): 352 µM
- concentration at 338 h (750 mg, Patient 026, 750 mg): 399 µM
- concentration at 339 h (750 mg, Patient 026, 750 mg): 506 µM
- concentration at 340 h (750 mg, Patient 026, 750 mg): 492 µM
- concentration at 360 h (750 mg, Patient 026, 750 mg): 625 µM
- concentration at 504 h (750 mg, Patient 026, 750 mg): 479 µM
- concentration at 506 h (750 mg, Patient 026, 750 mg): 625 µM
- concentration at 507 h (750 mg, Patient 026, 750 mg): 546 µM
- concentration at 508 h (750 mg, Patient 026, 750 mg): 582 µM
- concentration at 528 h (750 mg, Patient 026, 750 mg): 608 µM
- concentration at 672 h (750 mg, Patient 026, 750 mg): 594 µM
- concentration at 674 h (750 mg, Patient 026, 750 mg): 606 µM
- concentration at 675 h (750 mg, Patient 026, 750 mg): 655 µM
- concentration at 676 h (750 mg, Patient 026, 750 mg): 698 µM
- concentration at 696 h (750 mg, Patient 026, 750 mg): 732 µM
- concentration at 840 h (750 mg, Patient 026, 750 mg): 728 µM
- concentration at 842 h (750 mg, Patient 026, 750 mg): 824 µM
- concentration at 843 h (750 mg, Patient 026, 750 mg): 776 µM
- concentration at 844 h (750 mg, Patient 026, 750 mg): 822 µM
- concentration at 864 h (750 mg, Patient 026, 750 mg): 812 µM
- concentration at 2 h (750 mg, Patient 027, 750 mg): 110 µM
- concentration at 4 h (750 mg, Patient 027, 750 mg): 224 µM
- concentration at 24 h (750 mg, Patient 027, 750 mg): 199 µM
